The target in one series is T1, autotaxin (ATX) enzyme (Homo sapiens, UniProt Q13822).
T1 construct: purchased Cayman 700580
Briefly: Autotaxin (ATX) enzyme activity inhibition test (Cayman Autotaxin Inhibitor Screening Assay Kit). It is filed as biochemical. The note with it: 37° C., 30 min, OD405, read-out: IC50, inhibitory effect on ATX enzyme activity. How it is done:
The inhibitory effects of the compounds on the autotaxin enzyme were detected using the Autotaxin Inhibitor Screening Assay Kit (Cayman, 700580). […] Subsequently, the 8 concentrations were diluted with Autotaxin Assay buffer (1×) provided in the kit into 19× compound working solutions (DMSO content was 1.9%). The Autotaxin Assay Reagent (10×) was taken out and diluted by 10 times with Autotaxin Assay Buffer (1×). The Autotaxin Substrate was taken out, dissolved by adding 1.2 mL of Autotaxin Assay Buffer (1×), mixed evenly and let stand by at room temperature. In a 96-well plate, 150 μL of Autotaxin Assay Buffer (1×), 10 μL of the prepared and diluted 19× compound working solution, 10 μL of Autotaxin Assay Reagent (1×), and 20 μL of the dissolved Autotaxin Substrate were added to each of the wells for each concentration, and homogenously mixed. The 96-well plate was shaken in a constant temperature shaker at 37° C. and incubated in the dark for 30 min, and then the plate was taken out and placed on a microplate reader to read OD405.

Series [1] in a line: Pharmacokinetic test in rats. It is filed as in vivo. The note with it: Sprague-Dawley, rat, in vivo, male SD rats, oral gavage 10 mg/kg. As to the method:
(§1) For the pharmacokinetic test of rats, 3 male SD rats (180-240 g) were used, and fasted overnight. The rats were orally administered by gavage (10 mg/kg). […] The blood samples were centrifuged at 8,000 rpm at 4° C. for 6 min, and plasma was collected and stored at −20° C. The plasma at each time point was taken and added with an acetonitrile solution containing internal standard in 3 to 5 times the amount, vortexed and mixed for 1 min, and centrifuged at 13,000 rpm at 4° C. for 10 min. The supernatant was collected, added with water in 3 times the amount, and mixed. An appropriate amount of the mixture was taken for LC-MS/MS analysis. The main pharmacokinetic parameters were analyzed using WinNonlin 7.0 software with non-compartmental model.

Series [2] can be described thus: Human liver microsome stability test. In general terms: Liver microsomes are a subcellular fraction often used to study metabolism.
Description: The human liver microsome stability test was performed by incubating the compound and human liver microsomes in vitro for detection. First, the test compound was prepared into a 10 mM stock solution in DMSO solvent, and then the compound was diluted to 0.5 mM with acetonitrile. Human liver microsomes (Corning) were diluted with PBS and prepared as a microsome/buffer solution, which was used to dilute the 0.5 mM compound solution into a working solution. […] A deep-well multi-well plate was taken, 30 μL of the working solution and 15 μL of pre-warmed NADPH solution (6 mM) were sequentially added to each well to initiate a reaction, and the reaction was incubated at 37° C. […] After centrifugation, the supernatant was collected, and added with purified water in a ratio of 1:1 to perform LC-MS/MS detection. […] T1/2 was calculated by using Excel.
Series [3] addresses T2, ATX enzyme in human plasma (Homo sapiens, UniProt Q13822).
T2 construct: Whole blood was collected from healthy volunteers and anticoagulated with heparin; from tissue; host or cells: human plasma (heparin) from healthy volunteers
Briefly: Inhibition of activity of ATX enzyme in human plasma (LPA18:2 formation, LC-MSMS). It is filed as biochemical. How it is done:
Whole blood was collected from healthy volunteers and anticoagulated with heparin. The blood collection tubes were centrifuged at 3,000 rpm for 10 min, and the plasma was taken and stored at −80° C. for use.
The compound was serially diluted with DMSO according to the conventional concentration requirements, then 3 μL of each of the diluted compound solutions was added to a 96-well plate, and 147 μL of PBS was added to each well containing 3 μL of the compound solution. After mixing homogenously, 50 μL of the mixture was taken out and added to a new 96-well plate. The human plasma was taken out from the −80° C. refrigerator and thawed through rapid shaking in a 37° C. water bath. 50 μL of the human plasma was taken and added to the 96-well plate containing 50 μL of the diluted compound (the final system contained 1% DMSO). The group without the compound was set as the positive group. The 96-well plate was shaken and mixed uniformly, and incubated at 37° C. for 3 h. A blank group was also provided, and the plasma of the blank group was stored at −80° C. The blank group is provided to determine the baseline concentration of endogenous LPA.
After the incubation was finished, the blank group was thawed on ice and transferred to an incubation plate. Excess acetonitrile containing the internal standard LPA17: 0 was added to the incubation plate to precipitate the plasma protein. After vortex centrifugation, the supernatant was taken and diluted, and a peak area of LPA18: 2 and a peak area of internal standard LPA17: 0 were detected using LC-MSMS mass spectrometry.
(§2) A ratio of the peak area of LPA18: 2 to the peak area of internal standard LPA17: 0 was calculated, and a formation inhibition rate of LPA18: 2 was calculated according to the following formula:
(§3) Inhibition rate (%)=100−(compound group with different concentrations−blank group)/(positive group−blank group)*100
According to the inhibition rates of different concentrations of the compound, the IC50 value of the compound for inhibiting activity of ATX enzyme in human plasma was calculated.

The nature of series [4]: Pharmacokinetic test in canines. The conditions noted are these: dog, plasma; male beagle dogs, oral gavage 5 mg/kg. It is filed as in vivo. As to the method:
as §1
For the pharmacokinetics test of canines, 3 male beagle dogs (8 to 10 kg) were used, and fasted overnight. The dogs were orally administered by gavage (5 mg/kg). The rest of the operation is the same as the pharmacokinetic test in rats.

Series [5] has as its target T3, hERG channels (CHO cell line stably expressing hERG) (Homo sapiens, UniProt Q12809). Briefly: Inhibitory effect on hERG by full-automatic electrophysiological patch clamp QPatch. The conditions noted are these: hERG IC50 (μM) divided by ATX enzyme IC50 (nM). On the technique in general: hERG is a cardiac potassium channel; its block is linked to QT prolongation.
Description: (§4) Full-automatic electrophysiological patch clamp QPatch was used to detect the inhibitory effect of compounds on hERG. Cells used in this test were CHO cell line transfected with cDNA of hERG and stably expressing hERG channels (provided by Sophion Bioscience, Denmark), and the cell passage number was P24. The cells were cultured in a medium containing the following components (all purchased from Invitrogen): Ham's F12 medium, inactivated fetal bovine serum (10% (v/v)), hygromycin B (100 μg/ml), and Geneticin (100 μg/ml). CHO hERG cells were grown in a petri dish containing the above-mentioned medium and cultured in an incubator at 37° C. and containing 5% CO2.
(§5) The test compound was prepared into a 10 mM stock solution in DMSO solvent, the compound was diluted to 3 mM, 1 mM, 0.3 mM, and 0.1 mM with DMSO, and then the compound was diluted to 30 μM, 10 μM, 3 μM, 1 μM, 0.3 μM and 0.1 μM with the extracellular fluid, so that except that the final concentration of DMSO in the 30 μM compound was 0.3%, the final concentration of DMSO in compound solutions of all other concentrations was 0.10%.
(§6) The CHO hERG cells, after being digested and resuspended, were added to the full-automatic QPatch system (Sophion, Denmark), and subjected to a test according to the following preset procedure.
(§7) After reaching the ruptured whole cell configuration state in the initial stage, the whole cell current was recorded at room temperature (about 25° C.) for at least 120 seconds in order to achieve stability. The stable cells were selected for the test. During the whole test, the cells were clamped at a voltage of −80 mV, the cell clamp voltage was depolarized to +20 mV to activate the hERG potassium channels, and after 2.5 seconds, the cell clamp voltage was at −50 mV to eliminate inactivation and generate outward tail current. The peak tail current was used as the value of the hERG current. The voltage mode described above was applied to the cells for electrophysiological test every 15 seconds. An intracellular liquid containing 0.1% dimethyl sulfoxide (solvent) was added to the cells to establish a baseline, and then the current was allowed to stabilize for 3 min. After the compound solution was added, the cells were kept in the test environment until the effect of the compound reached a steady state or until reaching 4 min. In the test experiments with different concentration gradients of the compound, the compound was added from low to high concentration to the clamped cells. After the compound test was finished, the cells were washed with the extracellular fluid until the current returned to a stable state. The test data was analyzed by Qpatch analysis software provided by Sophion, Excel, and Graphpad Prism, etc.
The target in a further series is T4, ATX enzyme in rat plasma (Rattus norvegicus, UniProt Q64610).
T4 construct: Whole blood was collected from rats and anticoagulated with heparin; from tissue; host or cells: rat plasma (heparin)
The series can be described thus: Inhibition of activity of ATX enzyme in rat plasma (LPA18:2 formation, LC-MSMS). It is filed as biochemical. How it is done:
Whole blood was collected from rats and anticoagulated with heparin. The blood collection tubes were centrifuged at 3,000 rpm for 15 min, and the plasma was placed on ice for use.
The compound was serially diluted with DMSO: 30% ACN=1:19 according to the conventional concentration requirements, and then placed on ice. 147 μL of plasma, which was placed on ice, was added to a 96-well plate, and then 3 μL of each of the gradient solutions of the compound (finally 1[…] DMSO) was added. A group containing none of the compounds was set as the positive group. The 96-well plate was mixed uniformly, and incubated at 37° C. for 3 h. In addition, a blank group was also provided. At the beginning of the incubation, the plasma of blank group was added to with excessive acetonitrile containing the internal standard LPA17: 0 to precipitate the plasma protein, vortexed to mix, and stored at 4° C. The blank group was provided to determine the baseline concentration of endogenous LPA.
A peak area of LPA18: 2 and a peak area of internal standard LPA17: 0 were detected using LC-MSMS mass spectrometry.
as §2, §3
According to the inhibition rates of different concentrations of the compound, the IC50 value of the compound for inhibiting activity of ATX enzyme in rat plasma, was calculated.

In series [6] the target is T3, hERG channels (CHO cell line stably expressing hERG). The series can be described thus: cell-based.
Description: as §4, §5, §6, §7
Series [7] in a line: Pharmacokinetic test in mice. It is filed as in vivo. The note with it: mouse, plasma; male CD-1 mice, oral gavage 10 mg/kg. How it is done:
as §1, with “mice,” for “rats, 3”, “CD-1 mice (20 g to 25” for “SD rats (180-240”, “mice” for “rats”

T3 sequence (Q12809 whole entry): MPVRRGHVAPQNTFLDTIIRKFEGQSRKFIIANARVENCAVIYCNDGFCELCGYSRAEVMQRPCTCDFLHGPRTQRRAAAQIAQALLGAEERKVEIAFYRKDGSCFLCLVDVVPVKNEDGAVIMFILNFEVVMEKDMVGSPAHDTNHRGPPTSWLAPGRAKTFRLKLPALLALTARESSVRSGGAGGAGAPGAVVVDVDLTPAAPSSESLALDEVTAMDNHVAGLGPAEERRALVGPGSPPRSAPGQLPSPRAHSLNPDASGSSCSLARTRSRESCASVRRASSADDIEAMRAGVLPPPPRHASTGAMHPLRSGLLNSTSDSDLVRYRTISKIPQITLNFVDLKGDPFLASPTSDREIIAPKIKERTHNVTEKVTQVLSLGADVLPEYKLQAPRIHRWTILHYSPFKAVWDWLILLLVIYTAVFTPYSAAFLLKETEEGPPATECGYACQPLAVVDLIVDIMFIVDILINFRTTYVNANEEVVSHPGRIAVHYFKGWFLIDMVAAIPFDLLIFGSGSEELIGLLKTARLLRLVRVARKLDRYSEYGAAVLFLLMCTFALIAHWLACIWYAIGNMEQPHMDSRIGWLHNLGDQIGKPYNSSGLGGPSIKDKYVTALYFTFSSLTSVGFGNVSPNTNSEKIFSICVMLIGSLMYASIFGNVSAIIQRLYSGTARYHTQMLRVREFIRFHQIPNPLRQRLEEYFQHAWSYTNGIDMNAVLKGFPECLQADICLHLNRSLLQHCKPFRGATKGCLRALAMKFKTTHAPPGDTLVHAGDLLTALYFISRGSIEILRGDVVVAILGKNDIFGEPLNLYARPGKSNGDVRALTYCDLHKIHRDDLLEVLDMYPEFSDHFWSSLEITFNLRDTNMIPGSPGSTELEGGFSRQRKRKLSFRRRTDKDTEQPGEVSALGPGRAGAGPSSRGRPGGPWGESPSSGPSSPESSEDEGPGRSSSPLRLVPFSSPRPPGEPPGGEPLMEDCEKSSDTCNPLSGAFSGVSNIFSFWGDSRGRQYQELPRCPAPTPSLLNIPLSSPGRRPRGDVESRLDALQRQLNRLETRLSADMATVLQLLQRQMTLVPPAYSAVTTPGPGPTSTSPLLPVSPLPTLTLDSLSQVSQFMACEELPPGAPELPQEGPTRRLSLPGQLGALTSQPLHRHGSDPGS

For the compound `O=C(c1cnc(NC2Cc3ccccc3C2)nc1)N1CC2(CC(OCc3c[nH]nn3)C2)C1` [Compound I-9, (6-((1H-1,2,3-triazol-4-yl)methoxy)-2-azaspiro[3.3]heptan-2-yl)(2-((2,3-dihydro-1H-inden-2-yl)amino)pyrimidin-5-yl)methanone], the half-inhibitory concentration (IC50) (as a rule, the concentration needed to halve the response being measured) at autotaxin (ATX) enzyme amounted to 1.43 nM; in series [3] (human plasma, 37° C., 3 h, LPA18:2 formation, read-out: IC50, inhibitory effect on activity of ATX enzyme in human plasma), 2.74 nM; on ATX enzyme in rat plasma (rat plasma, 37° C., 3 h, LPA18:2 formation, read-out: IC50, inhibitory effect on activity of ATX enzyme in rat plasma), 2.83 nM; in series [6], 13400 nM. Besides, the time to peak (Tmax) (usually the time at which the peak concentration occurs) in series [1] is 25.2 min; in [4], 70.2 min; in [7], 19.8 min. The values for the AUC(0-t) in series [1] (read-out: AUC0-t), in series [4] and in series [7] were 1410 ng·h/mL, 9410 ng·h/mL and 4590 ng·h/mL, respectively. For the same compound, the Cmax (commonly the highest concentration seen after dosing) in series [1] (read-out: Cmax) is 973 ng/mL; in series [4], 2090 ng/mL; in [7], 3870 ng/mL. The “Remaining percentage (%) of compound after incubation for 30 min” value in series [2] (human liver microsomes, NADPH, 37° C., 30 min) was found to be 95.5%. Besides, the half-life – broadly, the time needed for the level to fall by half in the phase considered – at 1 µM in series [2] (human, microsomes) was 242 min. In addition, the “inhibitory effect on ATX enzyme in human plasma compared with control compounds 1 and 2” value in [3] (comparison in words) was “higher inhibitory effect on ATX enzyme in human plasma than the control compounds 1 and 2”. Also, the “hERG IC50/ATX IC50” value in series [5] was 13.4/1.43 = 9.37. In addition, on ATX enzyme in rat plasma (comparison in words), the “inhibitory activity on ATX enzyme in rat plasma compared with control compounds 1 and 2” value was “higher inhibitory activity on ATX enzyme in rat plasma than the control compounds 1 and 2”.

The record behind these values is patent publication US20220204479A1, “PYRIMIDINE COMPOUND AND PREPARATION METHOD THEREFOR” (Wuhan Humanwell Innovative Drug Research And Development …, priority 2019, published 2022).
